One experiment concerns hFOB cells. As to the kind of experiment: apoptosis assay (Annexin V / PI flow cytometry) of hFOB cells 6 days after IR. In kind it is cell-based, Human. The settings on record: for radioprotection of a mammalian cell line: agent alone; for Annexin V + / Annexin-V + PI / Live Cells / PI: hFOB cells 6 days after IR, adenosine 10 mM, MnCl2 0.25 mM, added 3 h before IR. As for the experimental part:
Apoptosis of Human Fetal Osteoblastic 1.19 cell line from ATCC (hFOB) was determined by death and apoptotic markers (Annexin V and propidium iodide PI) using a flow cytometry assay. In brief, hFOB cells were cultured in DMEM-F12 with 10% fetal bovine serum, 2.5 mM L-glutamine and 1% antibiotic to full confluency followed by treatment for experimental groups with adenosine (10 mM) or MnCl2 (0.25 mM) or adenosine and MnCl2 for 6 days period starting 3 h before IR. Apoptotic cell death was measured by flow cytometry with Annexin V and PI staining 6 days after IR. hFOB cells also were plated (1×10^3/well, 6-well plate) for clonogenic survival assay after IR. Colonies were counted 10 days later.
For the assays, adenosine+/−0.25 mM Mn(II) was added 3 hours prior to irradiation. Cells were assayed 6 days after irradiation by flow cytometry. Annexin-V conjugates allow for the identification of cell surface changes that occur early during the apoptotic process using flow cytometry. Early in the apoptotic process, phosphatidylserine becomes exposed on the cell surface. Propidium Iodide (PI) in un-fixed cells discriminates between apoptosis and necrosis on the basis of dye exclusion. While necrotic cells lose membrane integrity early on in their death throws, apoptotic cells may have compromised membranes.

Experiment [1] relates to Purified E. coli proteins. The experiment is described as follows: protein carbonyl assay of purified E. coli proteins irradiated in vitro. In kind it is biochemical. The following applies: for prevention of ionizing radiation (IR)-induced protein oxidation (carbonylation) in vitro: purified E. coli proteins incubated with the agent during irradiation, Carbonyl Western blot. As for the experimental part:
Purified E. coli proteins were incubated in PP-, EC-, or DR-ultra-filtrated extract during irradiation, and subjected to a protein carbonyl assay.
Purified E. coli proteins were incubated with the indicated agents.

The next experiment has as its target T1, restriction enzyme BamH1 (Bacillus amyloliquefaciens, UniProt P23940).
T1 sequence (P23940 1-213): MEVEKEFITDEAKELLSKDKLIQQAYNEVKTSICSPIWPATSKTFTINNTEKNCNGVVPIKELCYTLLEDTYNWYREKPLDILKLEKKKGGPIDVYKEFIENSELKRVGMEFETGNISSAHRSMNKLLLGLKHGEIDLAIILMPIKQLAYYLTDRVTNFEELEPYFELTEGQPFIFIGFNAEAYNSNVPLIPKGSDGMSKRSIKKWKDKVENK
In kind it is biochemical. The following applies: exposure to 17,500 Gy; 25 mM potassium phosphate buffer; 3 mM adenosine, 1 mM MnCl2. As for the experimental part: Post-irradiation functionality of restriction enzyme BamH1 after indicated treatment and incubation with 1-DNA.

On to `Nc1ncnc2c1ncn2[C@@H]1O[C@H](CO)[C@@H](O)[C@H]1O` [Adenosine, adenosine], for which the “radioprotection of a mammalian cell line” value with hFOB cells is on record as “radioprotective”. In the experiment on hFOB cells (0 Gy), the “Annexin V +” value was found to be 2%, the “Annexin-V + PI” value came to 1%, the “Live Cells” value was 85% and the PI came out at 13%. For the same compound, in the experiment on hFOB cells (8 Gy), the “Annexin V +” value is listed as 3%, the “Annexin-V + PI” value is 2%, the “Live Cells” value was found to be 85% and the PI stood at 10%. Also, the “protection of proteins from oxidation during irradiation” value in experiment [1] (potassium phosphate buffer (PPB/25 mM)+15 mM adenosine, compared to buffer alone) is on record as “highly protected from oxidation”. Also, the “prevention of ionizing radiation (IR)-induced protein oxidation (carbonylation) in vitro” value in experiment [1] is listed as “prevent ionizing radiation (IR)-induced protein oxidation in vitro”. The “BamH1 functionality after irradiation” value at restriction enzyme BamH1 is listed as “not”.
`O=c1ccn([C@@H]2O[C@H](CO)[C@@H](O)[C@H]2O)c(=O)[nH]1` [uridine]: the “prevention of ionizing radiation (IR)-induced protein oxidation (carbonylation) in vitro” value in experiment [1] is listed as “prevent ionizing radiation (IR)-induced protein oxidation in vitro”.
`[Cl][Mn][Cl]` [Mn, MnCl2]: in the experiment on hFOB cells, the “radioprotection of a mammalian cell line” value is “radioprotective”. Further, in the experiment on hFOB cells (0 Gy), the “Annexin V +” value was found to be 0%, the “Annexin-V + PI” value was 0%, the “Live Cells” value stood at 86% and the PI came out at 14%. For the same compound, in the experiment on hFOB cells (8 Gy), the “Annexin V +” value came out at 21%, the “Annexin-V + PI” value was found to be 2%, the “Live Cells” value came to 70% and the PI is reported as 7%. At restriction enzyme BamH1, the “BamH1 functionality after irradiation” value is “not”.

The record behind these values is patent publication US9186406B2, “Compositions containing nucleosides and manganese and their uses” (The Henry M. Jackson Foundation for Advancement of Military …, priority 2007, dated 2015).
